Source: ChEMBL document CHEMBL3352062, “Synthesis and biological evaluation of bile carboxamide derivatives with pro-apoptotic effect on human colon adenocarcinoma cell lines” (Eur J Med Chem, 2014)
Blank lines part the entries; values can stand above or below the compound they belong to. The source made the active and inactive calls. The rule behind the calls is not given here.

Legend:
DLD-1 [1] = assay: Antiproliferative activity against human DLD1 cells assessed as reduction in cell viability after 24 to 48 hrs by XTT assay; type: functional, cell-based
HCT-116 [2] = assay: Antiproliferative activity against human HCT116 cells assessed as reduction in cell viability after 24 to 48 hrs by XTT assay; type: functional, cell-based
HT-29 [3] = assay: Antiproliferative activity against human HT-29 cells assessed as reduction in cell viability after 24 to 48 hrs by XTT assay; type: functional, cell-based
[4] = Antiproliferative activity against human DLD1 cells assessed as reduction in cell viability after 24 hrs by XTT assay; type: functional, cell-based; settings: DLD-1, 24 h
[5] = Antiproliferative activity against human HCT116 cells assessed as reduction in cell viability after 24 hrs by XTT assay; type: functional, cell-based; settings: HCT-116, 24 h
HT-29 [6] = assay: Antiproliferative activity against human HT-29 cells assessed as reduction in cell viability after 24 hrs by XTT assay; type: functional, cell-based; settings: HT-29, 24 h
[7] = Cell cycle arrest in human DLD1 cells assessed as accumulation at sub-G1 phase at 30 uM after 24 hrs using propidium iodide by flow cytometry (reference value: 1.73 %); type: functional, cell-based; settings: DLD-1
[8] = Cell cycle arrest in human DLD1 cells assessed as accumulation at G0-G1 phase at 30 uM after 24 hrs using propidium iodide by flow cytometry (reference value: 35.37 %); type: functional, cell-based; settings: DLD-1
[9] = Cell cycle arrest in human DLD1 cells assessed as accumulation at S phase at 30 uM after 24 hrs using propidium iodide by flow cytometry (reference value: 21.08 %); type: functional, cell-based; settings: DLD-1
[10] = Cell cycle arrest in human DLD1 cells assessed as accumulation at G2-M phase at 30 uM after 24 hrs using propidium iodide by flow cytometry (reference value: 39.85 %); type: functional, cell-based; settings: DLD-1
[11] = Cell cycle arrest in human HCT116 cells assessed as accumulation at sub-G1 phase at 30 uM after 24 hrs using propidium iodide by flow cytometry (reference value: 1.78 %); type: functional, cell-based; settings: HCT-116
[12] = Cell cycle arrest in human HCT116 cells assessed as accumulation at G0-G1 phase at 30 uM after 24 hrs using propidium iodide by flow cytometry (reference value: 42.61 %); type: functional, cell-based; settings: HCT-116
[13] = Cell cycle arrest in human HCT116 cells assessed as accumulation at S phase at 30 uM after 24 hrs using propidium iodide by flow cytometry (reference value: 18.80 %); type: functional, cell-based; settings: HCT-116
[14] = Cell cycle arrest in human HCT116 cells assessed as accumulation at G2-M phase at 30 uM after 24 hrs using propidium iodide by flow cytometry (reference value: 33.69 %); type: functional, cell-based; settings: HCT-116
HT-29 [15] = assay: Cell cycle arrest in human HT-29 cells assessed as accumulation at sub-G1 phase at 30 uM after 24 hrs using propidium iodide by flow cytometry (reference value: 3.18 %); type: functional
HT-29 [16] = assay: Cell cycle arrest in human HT-29 cells assessed as accumulation at G0-G1 phase at 30 uM after 24 hrs using propidium iodide by flow cytometry (reference value: 43.78 %); type: functional
HT-29 [17] = assay: Cell cycle arrest in human HT-29 cells assessed as accumulation at S phase at 30 uM after 24 hrs using propidium iodide by flow cytometry (reference value: 28.28 %); type: functional
HT-29 [18] = assay: Cell cycle arrest in human HT-29 cells assessed as accumulation at G2-M phase at 30 uM after 24 hrs using propidium iodide by flow cytometry (reference value: 21.66 %); type: functional
DLD-1 [19] = assay: Induction of apoptosis in human DLD1 cells assessed as APO2.7-positive cells at 30 uM after 24 hrs using propidium iodide by flow cytometry (reference value: 1.01 %); type: functional
HCT-116 [20] = assay: Induction of apoptosis in human HCT116 cells assessed as APO2.7-positive cells at 30 uM after 24 hrs using propidium iodide by flow cytometry (reference value: 1.19 %); type: functional
HT-29 [21] = assay: Induction of apoptosis in human HT-29 cells assessed as APO2.7-positive cells at 30 uM after 24 hrs using propidium iodide by flow cytometry (reference value: 1.11 %); type: functional
DLD-1 [22] = assay: Induction of apoptosis in human DLD1 cells assessed as PARP cleavage at 30 uM after 24 hrs using propidium iodide by Western blot analysis; type: functional, cell-based
HCT-116 [23] = assay: Induction of apoptosis in human HCT116 cells assessed as PARP cleavage at 30 uM after 24 hrs using propidium iodide by Western blot analysis; type: functional, cell-based
HT-29 [24] = assay: Induction of apoptosis in human HT-29 cells assessed as PARP cleavage at 30 uM after 24 hrs using propidium iodide by Western blot analysis; type: functional, cell-based

Structure (SMILES): C[C@H](CCC(=O)N1CCN(C(c2ccc(F)cc2)c2ccc(F)cc2)CC1)[C@H]1CC[C@H]2[C@@H]3[C@H](O)C[C@@H]4C[C@H](O)CC[C@]4(C)[C@H]3CC[C@]12C
Activity (DLD-1 [1]): Dose-dependent effect
Activity (HCT-116 [2]): Dose-dependent effect
Activity (HT-29 [3]): Dose-dependent effect

Structure (SMILES): C[C@H](CCC(=O)N1CCN(C(c2ccccc2)c2ccc(Cl)cc2)CC1)[C@H]1CC[C@H]2[C@@H]3CC[C@@H]4C[C@H](O)CC[C@]4(C)[C@H]3C[C@H](O)[C@]12C (stereo not given in full)
Activity (DLD-1 [1]): Dose-dependent effect
Activity (HCT-116 [2]): Dose-dependent effect
Activity (HT-29 [3]): Dose-dependent effect

IC50 (HT-29 [6]): 35 µM
Structure (SMILES): C[C@H](CCC(=O)N1CCN(C/C=C/c2ccccc2)CC1)[C@H]1CC[C@H]2[C@@H]3[C@H](O)C[C@@H]4C[C@H](O)CC[C@]4(C)[C@H]3CC[C@]12C
IC50 [4]: 36 µM
IC50 [5]: 34 µM
Activity [7]: 49.8%
Activity [8]: 24%
Activity [9]: 18.8%
Activity [10]: 6.22%
Activity [11]: 31.2%
Activity [12]: 33%
Activity [13]: 22.5%
Activity [14]: 11.3%
Activity (HT-29 [15]): 48.38%
Activity (HT-29 [16]): 28.49%
Activity (HT-29 [17]): 18.65%
Activity (HT-29 [18]): 4.77%
Activity (DLD-1 [19]): 34.87%
Activity (HCT-116 [20]): 37.73%
Activity (HT-29 [21]): 8.79%
Activity (DLD-1 [22]): Active
Activity (HCT-116 [23]): Active
Activity (HT-29 [24]): Active

IC50 (HT-29 [6]): 32 µM
Structure (SMILES): C[C@H](CCC(=O)N1CCN(Cc2ccccc2)CC1)[C@H]1CC[C@H]2[C@@H]3CC[C@@H]4C[C@H](O)CC[C@]4(C)[C@H]3C[C@H](O)[C@]12C
IC50 [4]: 26 µM
IC50 [5]: 22 µM
Activity [7]: 14.3%
Activity [8]: 28.5%
Activity [9]: 15.4%
Activity [10]: 39%
Activity [11]: 14.8%
Activity [12]: 33.6%
Activity [13]: 18.4%
Activity [14]: 28.9%
Activity (HT-29 [15]): 34.81%
Activity (HT-29 [16]): 36.89%
Activity (HT-29 [17]): 15.67%
Activity (HT-29 [18]): 11.14%
Activity (DLD-1 [19]): 2.49%
Activity (HCT-116 [20]): 4.59%
Activity (HT-29 [21]): 1.26%
Activity (DLD-1 [22]): Active
Activity (HCT-116 [23]): Active
Activity (HT-29 [24]): Active

IC50 (HT-29 [6]): 36 µM
Structure (SMILES): C[C@H](CCC(=O)N1CCN(Cc2ccccc2)CC1)[C@H]1CC[C@H]2[C@@H]3[C@H](O)C[C@@H]4C[C@H](O)CC[C@]4(C)[C@H]3CC[C@]12C
IC50 [4]: 33 µM
IC50 [5]: 23 µM
Activity [7]: 10.7%
Activity [8]: 40%
Activity [9]: 14.1%
Activity [10]: 32.2%
Activity [11]: 13%
Activity [12]: 36.9%
Activity [13]: 17.8%
Activity [14]: 26.6%
Activity (HT-29 [15]): 18.13%
Activity (HT-29 [16]): 49.08%
Activity (HT-29 [17]): 17.11%
Activity (HT-29 [18]): 13.63%
Activity (DLD-1 [19]): 22.54%
Activity (HCT-116 [20]): 20.33%
Activity (HT-29 [21]): 8.57%
Activity (DLD-1 [22]): Active
Activity (HCT-116 [23]): Active
Activity (HT-29 [24]): Active

Structure (SMILES): C[C@H](CCC(=O)N1CCN(Cc2ccccc2)CC1)[C@H]1CC[C@H]2[C@@H]3CC[C@@H]4C[C@H](O)CC[C@]4(C)[C@H]3CC[C@]12C
Activity (DLD-1 [1]): Dose-dependent effect
Activity (HCT-116 [2]): Dose-dependent effect
Activity (HT-29 [3]): Dose-dependent effect

Structure (SMILES): C[C@H](CCC(=O)N1CCN(C(c2ccccc2)c2ccc(Cl)cc2)CC1)[C@H]1CC[C@H]2[C@@H]3[C@@H](O)C[C@@H]4C[C@H](O)CC[C@]4(C)[C@H]3CC[C@]12C (stereo not given in full)
Activity (DLD-1 [1]): Dose-dependent effect
Activity (HCT-116 [2]): Dose-dependent effect
Activity (HT-29 [3]): Dose-dependent effect
